Converted amounts (≈) assume the structure as drawn. Where only a bound is given, the exact number is not on record here.

One data set deals with T1, VEGFR1 (Homo sapiens, UniProt P17948).
T1 construct: purchased Invitrogen PR6731B
Briefly: Kinase inhibition, Mobility Shift Assay/IMAP, VEGFR1. The format is biochemical. Put shortly:
(§1)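 Substrate conversion (phosphorylated vs non-phosphorylated) read by mobility shift on Caliper EZ Reader II and converted to % inhibition relative to no-enzyme and DMSO controls. IC50 fitted from % inhibition versus log compound concentration.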

The target of another data set is T2, VEGFR3 (Homo sapiens, UniProt P35916).
T2 construct: purchased Invitrogen PV4129
T2 sequence (P35916 25-1363): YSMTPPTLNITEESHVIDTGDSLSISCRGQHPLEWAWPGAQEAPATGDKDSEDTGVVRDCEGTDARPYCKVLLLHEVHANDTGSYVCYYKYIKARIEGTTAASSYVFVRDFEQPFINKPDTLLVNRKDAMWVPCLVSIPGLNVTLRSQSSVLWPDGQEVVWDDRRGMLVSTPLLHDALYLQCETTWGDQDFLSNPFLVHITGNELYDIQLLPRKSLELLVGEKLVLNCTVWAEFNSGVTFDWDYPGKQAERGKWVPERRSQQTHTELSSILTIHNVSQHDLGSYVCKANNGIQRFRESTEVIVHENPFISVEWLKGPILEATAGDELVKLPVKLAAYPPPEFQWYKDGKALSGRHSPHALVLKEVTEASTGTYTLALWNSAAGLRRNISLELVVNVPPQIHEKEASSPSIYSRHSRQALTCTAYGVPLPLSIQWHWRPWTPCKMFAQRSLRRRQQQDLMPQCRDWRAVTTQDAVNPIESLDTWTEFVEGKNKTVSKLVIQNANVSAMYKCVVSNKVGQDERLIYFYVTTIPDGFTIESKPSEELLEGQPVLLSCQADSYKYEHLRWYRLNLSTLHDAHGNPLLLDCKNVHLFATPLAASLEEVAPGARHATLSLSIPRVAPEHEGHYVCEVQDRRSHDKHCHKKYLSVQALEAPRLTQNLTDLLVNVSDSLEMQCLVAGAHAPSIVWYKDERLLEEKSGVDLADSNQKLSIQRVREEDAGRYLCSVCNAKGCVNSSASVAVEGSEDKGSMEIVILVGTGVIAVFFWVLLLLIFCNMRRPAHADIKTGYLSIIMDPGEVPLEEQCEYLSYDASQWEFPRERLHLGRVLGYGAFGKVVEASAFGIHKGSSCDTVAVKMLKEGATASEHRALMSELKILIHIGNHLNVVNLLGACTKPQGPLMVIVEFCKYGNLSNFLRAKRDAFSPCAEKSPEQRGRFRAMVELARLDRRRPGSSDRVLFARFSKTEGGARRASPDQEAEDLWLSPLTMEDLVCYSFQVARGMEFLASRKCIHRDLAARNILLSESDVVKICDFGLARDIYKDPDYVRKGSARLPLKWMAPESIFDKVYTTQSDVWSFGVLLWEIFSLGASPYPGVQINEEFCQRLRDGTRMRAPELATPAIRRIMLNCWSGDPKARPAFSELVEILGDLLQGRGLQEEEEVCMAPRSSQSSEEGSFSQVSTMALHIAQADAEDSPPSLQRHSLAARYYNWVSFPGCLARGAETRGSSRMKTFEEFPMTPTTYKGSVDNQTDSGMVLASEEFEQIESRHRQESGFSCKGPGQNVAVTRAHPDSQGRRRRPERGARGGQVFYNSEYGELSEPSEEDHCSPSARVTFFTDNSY
Briefly: Kinase inhibition, Mobility Shift Assay/IMAP, VEGFR3. The format is biochemical. The procedure, abridged:
as §1

In another data set the target is T3, EGFR (Homo sapiens, UniProt P00533).
T3 construct: purchased Carna 08-115
T3 sequence (P00533 669-1210 limits assumed): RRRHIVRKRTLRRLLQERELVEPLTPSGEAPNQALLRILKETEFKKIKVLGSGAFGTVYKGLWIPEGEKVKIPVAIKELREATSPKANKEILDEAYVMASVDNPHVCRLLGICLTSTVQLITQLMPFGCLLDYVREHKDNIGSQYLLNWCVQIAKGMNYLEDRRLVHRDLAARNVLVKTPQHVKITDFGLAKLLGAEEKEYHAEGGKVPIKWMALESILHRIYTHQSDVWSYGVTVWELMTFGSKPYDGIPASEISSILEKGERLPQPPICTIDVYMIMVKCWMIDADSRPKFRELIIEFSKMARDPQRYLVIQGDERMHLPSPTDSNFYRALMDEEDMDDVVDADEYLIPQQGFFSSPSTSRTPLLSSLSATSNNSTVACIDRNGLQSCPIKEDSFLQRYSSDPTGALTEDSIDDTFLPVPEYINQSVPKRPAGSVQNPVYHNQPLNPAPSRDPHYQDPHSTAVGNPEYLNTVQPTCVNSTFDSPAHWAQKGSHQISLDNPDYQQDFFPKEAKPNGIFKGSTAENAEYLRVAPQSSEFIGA
Briefly: Kinase inhibition, Mobility Shift Assay/IMAP, EGFR. The format is biochemical. The procedure, abridged:
as §1

Data set [1] is described as follows: Solubility test in buffer, LC-MS. The format is physicochemical. To be noted: aqueous buffer, thermodynamic from solid, room temperature, shaking 8 h, pH not given (method: pH 2.0, 6.5, 7.4). Put shortly: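 Compound at 2 mg/mL in buffers of pH 2.0, 6.5 and 7.4, sonicated, shaken 8 h at room temperature, then centrifuged at 13,000 rpm. Supernatant quantified by LC-MS against a 3–5 point calibration.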

Data set [2] deals with T4, VEGFR2 (Homo sapiens, UniProt P35968). As to the kind of experiment: Kinase inhibition, Mobility Shift Assay/IMAP, VEGFR2. The format is biochemical. Also on record: purchased Carna 08-191. The procedure, abridged: as §1
Target sequence in this assay (P35968 790-1356 limits assumed): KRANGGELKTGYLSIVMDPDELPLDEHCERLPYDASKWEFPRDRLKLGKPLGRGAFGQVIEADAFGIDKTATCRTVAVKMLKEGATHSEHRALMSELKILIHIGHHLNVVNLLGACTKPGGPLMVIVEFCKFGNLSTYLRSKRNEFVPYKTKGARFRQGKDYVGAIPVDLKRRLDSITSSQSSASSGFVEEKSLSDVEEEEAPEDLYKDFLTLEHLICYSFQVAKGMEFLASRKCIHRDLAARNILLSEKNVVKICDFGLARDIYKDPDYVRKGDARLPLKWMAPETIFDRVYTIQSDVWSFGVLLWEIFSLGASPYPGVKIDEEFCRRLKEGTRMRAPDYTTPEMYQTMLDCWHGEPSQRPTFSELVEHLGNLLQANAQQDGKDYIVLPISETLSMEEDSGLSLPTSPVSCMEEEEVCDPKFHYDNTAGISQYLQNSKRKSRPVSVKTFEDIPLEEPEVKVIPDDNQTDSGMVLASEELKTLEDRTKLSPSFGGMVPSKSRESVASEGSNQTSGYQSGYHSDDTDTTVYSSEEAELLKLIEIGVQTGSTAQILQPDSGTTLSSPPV
Data set [3] addresses T4, VEGFR2. As to the kind of experiment: Inhibition of VEGF-induced VEGFR2 autophosphorylation (pVEGFR2) in HUVEC cells, ELISA. The class given is cell-based. The following applies: 50 ng/mL human VEGF, compound 1 h. Also on record: endogenous in cells; host or cells: HUVEC. The source says:
Vascular endothelial growth factor receptor 2 (VEGFR2) is a primary receptor for VEGF-induced endothelial cell signaling. After ligand binding, VEGFR2 is autophosphorylated and activated. The main function of signaling from VEGFR2 is to induce vascularization during development and after tissue injury, and to bypass blocked blood vessels. Pathologically, VEGF and VEGFR2 are involved in tumor angiogenesis and vascular leakage. They are considered to be main participants in many different cancers and ocular diseases that accompany pathological neovascularization. This assay measured the ability of the compounds to inhibit VEGF-induced VEGFR2 autophosphorylation (pVEGFR2) in HUVEC cells by using ELISA.
Culture cells in a cell culture flask to reach a fusion degree of 60%-80% before cell inoculation. Dilute the cell suspension to […] with a pre-warmed complete medium. Add 80 μL of the cell suspension to all wells of a 96-well cell plate (Corning-3599); and incubate the plate overnight at 37° C. in the presence of 5% CO2. Dissolve the compound powder to 10 mM with DMSO and store it in a nitrogen cabinet. Compound dilution plate: Add a reference compound Ponatinib or a compound to be tested to a 96 V-well plate (Axygen-WIPP 2280) at concentrations achieved as follows: performing 3-fold gradient dilution starting from 5 mM (5 μL of 10 mM compound solution plus 5 μL of DMSO) for a total of 8 concentration points. […] Transfer 20 μL of the diluted compound from the intermediate plate to a cell plate. Then, incubate the cell plate for 1 h at 37° C. in the presence of 5% CO2. After the compound was treated for 1 h, add 25 μL of 250 ng/ml human VEGF at a final concentration of 50 ng/mL to a 96-well plate; and incubate the plate for 5 min at 37° C. in the presence of 5% CO2, centrifuge the plate for 10 min at 3,000 rpm, remove the medium and wash the cells once with 300 μL of pre-chilled DPBS per well. Then, centrifuge the plate for 10 min at 4,000 rpm, remove DPBS, and add 110 μL of pre-chilled 1× cell lysis buffer per well to the 96-well plate. Shake the plate for 40 min at 4° C. Then, freeze the plate in a refrigerator at −80° C. On the next day, remove the plate from the refrigerator at −80° C., thaw the plate, centrifuge the plate for 10 min at 3500 rpm, and add 100 μL of the supernatant per well to an ELISA plate. Seal the plate and incubate it for 2 h at 37° C. Wash the wells 4 times with 1× wash buffer. Add 100 μL of recombinant detection antibody per well. Seal the plate, incubate the plate for 1 h at 37° C., and repeat the step of plate washing. Add 100 μL of secondary antibody per well. Seal the plate, incubate the plate for 30 min at 37° C., and repeat the step of plate washing. Add 100 μL of TMB (protected from light) per well. Seal the plate, incubate the plate for 30 min at 37° C., and add 100 μL of the stop solution per well. Gently shake for 30 sec, measure the absorbance with a SpectraMax® 340 PC 384 Absorbance Microplate Reader within 30 min, and read an optical density value at 450 nm. Conduct data analysis using XL Fit software:
Conduct curve fitting using the 4 Parameter Logistic Model or Sigmoidal Dose-Response Model to obtain IC50 values.
X indicates the log value of compound concentration, Y indicates the inhibition rate (% inhibition), Top indicates the readout of the negative control wells, and Bottom indicates the readout of the positive control well.
(An ELISA detects its analyte on a solid surface through an enzyme-linked reagent.)

For the next data set, the system named is melanin. Briefly: Binding capacity of compounds to melanin. The class given is in vitro ADME, cuttlefish (Sepia officinalis). The following applies: cuttlefish (Sepia officinalis), melanin suspension (1 mg/mL); 1 mg/mL melanin in PBS pH 7.4, 2 μM compound, 2 h at 37° C.; read-out: Fu % (percentage of free drug). The procedure, abridged: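 Compound (2 μM final) incubated with washed Sepia melanin (1 mg/mL, PBS pH 7.4) 2 h at 37° C with shaking; PBS with 0.1% BSA served as blank. Supernatants quantified by LC-MS/MS; bound fraction Fb derived from melanin versus blank concentration.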

Another data set has as its target T5, TIE2 (Homo sapiens, UniProt Q02763).
T5 construct: purchased BPS 40270
As to the kind of experiment: Kinase inhibition, Mobility Shift Assay/IMAP, TIE2. The format is biochemical. The procedure, abridged:
as §1

The next data set has as its system HUVEC cells. Briefly: Inhibition of VEGF-induced HUVEC cell proliferation, CellTiter Glo. The format is cell-based. The following applies: Homo sapiens, 20 ng/ml VEGF, 72 hours. The source says:
In this experiment, human umbilical vein endothelial cells (HUVEC, Lonza) were used. HUVEC cells are primary cells isolated from umbilical veins. This cell line is a model system to study the functions of endothelial cells. Endothelial cell proliferation in response to VEGF is crucial to the pathological angiogenesis associated with conditions such as tumor development and ocular neovascular diseases.
In this assay, a luciferase bioluminescence assay (CellTiter GLU™, Promega) is used to determine the inhibitory activity of the compounds against VEGF-induced HUVEC cell proliferation and viability. CellTiter GLO™ is a homogeneous method for quantifying the count of viable cells in culture based on ATP, an indicator of metabolically active cells. In this assay, the compound was incubated with HUVEC cells for 72 hours, and then the inhibitory activity of the resulting compound against VEGF-induced HUVEC cell proliferation was measured on the En Vision plate reader.
With the RPMI-1640 medium (plus 5% FBS, 1% Penicillin-Streptomycin) used for the HUVEC cell proliferation experiment, add a cell suspension to a 96-well plate at 100 μl per well, i.e., 4000 HUVEC cells/well, and incubate them overnight in a 5% CO2 incubator at 37° C. (serum starvation). After 24 hours, add 96 μl of the experimental medium to the cell wells, and then add 2 μl of the compound to the cell wells; and after 1 hour following the addition of the compound, add 2 μl of 2 μg/ml VEGF to the cell wells. Add 0.1% DMSO and 20 ng/ml VEGF to cell wells to serve as high-reading control wells. Take cell-free wells with only medium as low-reading control wells. […] After 72 hours of incubation of the cell plate in the incubator, hold the cell plate to be tested at room temperature and discard 100 μl of medium per well. Add 100 μl of CTG reagent (CellTiter Glo kit) per well, oscillate the cell plate in a fast oscillator for 3 minutes, and keep the cell plate at room temperature in the dark for 30 minutes. Read the chemiluminescence signal value with the Envision instrument.
X indicates the log value of compound concentration, Y indicates the inhibition rate (% inhibition), Top indicates the readout of the high-reading control well.

T5 sequence (Q02763 23-1124): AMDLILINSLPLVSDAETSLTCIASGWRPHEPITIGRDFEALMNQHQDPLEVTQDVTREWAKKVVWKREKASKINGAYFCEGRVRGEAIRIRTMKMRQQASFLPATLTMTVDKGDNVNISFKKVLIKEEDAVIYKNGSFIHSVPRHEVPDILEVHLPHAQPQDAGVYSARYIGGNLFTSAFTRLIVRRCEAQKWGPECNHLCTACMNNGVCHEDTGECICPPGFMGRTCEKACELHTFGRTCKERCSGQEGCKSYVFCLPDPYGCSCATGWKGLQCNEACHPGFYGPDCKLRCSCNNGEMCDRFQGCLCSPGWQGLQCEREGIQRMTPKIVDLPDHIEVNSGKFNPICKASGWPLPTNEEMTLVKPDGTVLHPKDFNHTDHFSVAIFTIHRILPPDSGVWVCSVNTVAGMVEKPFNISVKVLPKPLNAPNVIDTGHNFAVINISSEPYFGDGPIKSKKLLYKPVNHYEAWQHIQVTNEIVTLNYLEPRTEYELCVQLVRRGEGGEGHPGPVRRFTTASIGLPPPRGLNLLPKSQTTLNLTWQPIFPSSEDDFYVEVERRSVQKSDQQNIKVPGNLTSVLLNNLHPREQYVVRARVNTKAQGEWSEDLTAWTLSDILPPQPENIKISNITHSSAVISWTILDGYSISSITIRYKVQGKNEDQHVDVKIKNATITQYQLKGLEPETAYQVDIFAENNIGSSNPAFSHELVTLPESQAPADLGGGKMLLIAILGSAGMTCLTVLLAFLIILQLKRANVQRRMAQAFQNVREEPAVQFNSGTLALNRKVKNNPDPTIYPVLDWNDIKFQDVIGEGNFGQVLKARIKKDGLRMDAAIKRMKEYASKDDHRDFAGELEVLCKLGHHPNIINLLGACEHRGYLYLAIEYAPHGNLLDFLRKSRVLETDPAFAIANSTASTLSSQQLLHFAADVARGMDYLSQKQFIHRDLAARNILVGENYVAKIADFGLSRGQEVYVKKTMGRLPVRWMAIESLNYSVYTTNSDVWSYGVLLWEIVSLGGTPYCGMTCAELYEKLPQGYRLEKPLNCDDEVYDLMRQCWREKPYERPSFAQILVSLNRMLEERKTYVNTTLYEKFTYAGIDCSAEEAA
T1 sequence (P17948 27-1338): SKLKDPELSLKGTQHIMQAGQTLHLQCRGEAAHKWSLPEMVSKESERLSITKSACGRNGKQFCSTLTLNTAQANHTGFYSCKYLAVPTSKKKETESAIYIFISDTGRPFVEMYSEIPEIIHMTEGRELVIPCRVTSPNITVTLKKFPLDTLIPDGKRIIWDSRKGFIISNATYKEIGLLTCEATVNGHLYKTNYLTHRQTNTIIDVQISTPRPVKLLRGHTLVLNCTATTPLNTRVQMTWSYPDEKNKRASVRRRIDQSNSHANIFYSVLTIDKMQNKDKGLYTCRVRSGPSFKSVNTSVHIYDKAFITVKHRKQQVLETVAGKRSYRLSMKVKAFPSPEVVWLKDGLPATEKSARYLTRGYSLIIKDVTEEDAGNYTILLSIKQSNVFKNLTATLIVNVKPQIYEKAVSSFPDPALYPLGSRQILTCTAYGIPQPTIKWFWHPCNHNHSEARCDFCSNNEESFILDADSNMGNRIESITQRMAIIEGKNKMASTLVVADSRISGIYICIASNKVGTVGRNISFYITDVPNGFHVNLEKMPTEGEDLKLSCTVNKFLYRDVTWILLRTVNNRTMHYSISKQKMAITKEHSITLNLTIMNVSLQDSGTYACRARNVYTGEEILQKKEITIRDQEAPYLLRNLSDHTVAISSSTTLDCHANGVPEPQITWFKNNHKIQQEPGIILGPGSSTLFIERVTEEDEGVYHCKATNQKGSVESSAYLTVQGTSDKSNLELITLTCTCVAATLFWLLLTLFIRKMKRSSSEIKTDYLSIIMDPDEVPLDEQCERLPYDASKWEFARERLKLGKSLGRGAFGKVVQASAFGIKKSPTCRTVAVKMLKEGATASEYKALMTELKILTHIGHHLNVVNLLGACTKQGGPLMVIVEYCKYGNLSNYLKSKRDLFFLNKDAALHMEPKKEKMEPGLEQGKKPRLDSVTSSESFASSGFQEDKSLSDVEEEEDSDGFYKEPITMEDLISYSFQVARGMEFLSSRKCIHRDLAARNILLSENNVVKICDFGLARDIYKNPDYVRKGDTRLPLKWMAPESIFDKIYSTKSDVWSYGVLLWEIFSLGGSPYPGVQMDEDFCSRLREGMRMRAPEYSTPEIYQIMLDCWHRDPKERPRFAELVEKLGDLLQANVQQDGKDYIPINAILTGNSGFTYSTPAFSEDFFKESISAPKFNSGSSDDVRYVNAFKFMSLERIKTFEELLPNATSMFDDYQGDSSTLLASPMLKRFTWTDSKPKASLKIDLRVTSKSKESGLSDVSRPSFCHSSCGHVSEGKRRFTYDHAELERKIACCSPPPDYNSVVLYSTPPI

By IC50 is commonly meant the concentration that inhibits the measured activity by half. As usually defined, the solubility is the concentration that dissolves in the medium under given conditions. Read a high solubility as much dissolved substance. Take `NC(=O)c1c(OCc2ccc(F)c(C(=O)NC3CC3)c2)nsc1NC(=O)NCCCCN1CCCC1` [Compound T151, 3-[[3-(cyclopropylcarbamoyl)-4-fluoro-phenyl]methoxy]-5-(4-pyrrolidin-1-ylbutylcarbamoylamino)isothiazole-4-carboxamide]: the IC50 on VEGFR1 was found to be 1.53 nM; on VEGFR3 it was 3.91 nM; at EGFR it was 10700 nM; at VEGFR2 [2], 1.75 nM; on VEGFR2 [3] it was 68.4 nM. Also, the solubility at 8 h in [1] is 1340 µg/mL (≈ 2590 µM).

For `NC(=O)c1c(OCc2c(F)cc3c(c2F)OCC3)nsc1NC(=O)NCCCCN1CCCC1` [Compound T129, 3-[(5,7-difluoro-2,3-dihydrobenzofuran-6-yl)methoxy]-5-(4-pyrrolidin-1-ylbutylcarbamoylamino)isothiazole-4-carboxamide], the figures for the IC50 at EGFR, on VEGFR2 [2] and against VEGFR2 [3] were 15600 nM, 11.9 nM and 71 nM, respectively. In addition, in the data set with melanin, the fraction unbound at 2 h, 2 μM was 0.0889.

Take `NC(=O)c1c(OCc2cc(C(=O)NC3CC3)ccc2F)nsc1NC(=O)NCCCN1CCCC1` [Compound T098, 3-((5-(cyclopropylcarbamoyl)-2-fluorobenzyl)oxy)-5-(3-(3-(pyrrolidin-1-yl)propyl)ureido)isothiazole-4-carboxamide]: the concentration for half-maximal inhibition (IC50) on TIE2 came out at 4910 nM; on EGFR, 16500 nM; at VEGFR2 [2] it was 1.56 nM; against VEGFR2 [3], 132 nM. The fraction unbound at 2 h, 2 μM in the data set on melanin is 0.0666.

As to `CN1CCN(CCNC(=O)Nc2snc(OCc3ccc(F)c(C(=O)NC4CC4)c3)c2C(N)=O)CC1` [Compound T149, 3-[[3-(cyclopropylcarbamoyl)-4-fluoro-phenyl]methoxy]-5-[2-(4-methylpiperazin-1-yl)ethylcarbamoylamino]isothiazole-4-carboxamide], the IC50 came to 2.39 nM on VEGFR1; 10 nM on VEGFR3; 12000 nM on EGFR; 2.35 nM on VEGFR2 [2]; 52.2 nM against VEGFR2 [3]. The same molecule had a solubility at 8 h in [1] of 1580 µg/mL (≈ 3040 µM).

Consider `COc1cc(OC)c(F)c(COc2nsc(NC(=O)NCCC3CCN(CCF)CC3)c2C(N)=O)c1F` [Compound T126, 3-[(2,6-difluoro-3,5-dimethoxy-phenyl)methoxy]-5-[2-[1-(2-fluoroethyl)-4-piperidyl]ethylcarbamoylamino]isothiazole-4-carboxamide], for which the IC50 at EGFR is over 60000 nM; with HUVEC cells it was 22 nM; at VEGFR2 [2], 2.7 nM; against VEGFR2 [3], 27 nM. Moreover, the fraction unbound at 2 h, 2 μM with melanin came out at 0.0495.

For the molecule `CN1CCN(CCCNC(=O)Nc2snc(OCc3ccc(F)c(C(=O)NC4CC4)c3)c2C(N)=O)CC1` [Compound T078, 3-[[3-(cyclopropylcarbamoyl)-4-fluoro-phenyl]methoxy]-5-[3-(4-methylpiperazin-1-yl)propylcarbamoylamino]isothiazole-4-carboxamide], the IC50 at VEGFR1 was 5.72 nM; on VEGFR3, 16.8 nM; on TIE2 it was 4060 nM; at EGFR, 16100 nM; at VEGFR2 [2], 2.09 nM; at VEGFR2 [3] it was 56.5 nM. The molecule further came in with a solubility at 8 h in data set [1] of 800 µg/mL (≈ 1500 µM). For the same molecule, the fraction unbound at 2 h, 2 μM in the data set on melanin is 0.0241.

`COc1ccc(F)c(COc2nsc(NC(=O)NCCCCN3CCCCC3)c2C(N)=O)c1F` [Compound T131, 3-[(2,6-difluoro-3-methoxy-phenyl)methoxy]-5-[4-(1-piperidyl)butylcarbamoylamino]isothiazole-4-carboxamide]: the figures for the IC50 at EGFR, on VEGFR2 [2] and against VEGFR2 [3] were 15000 nM, 17.4 nM and 19 nM, respectively. This molecule came in with a solubility at 8 h in [1] of 278 µg/mL (≈ 559 µM). In addition, the fraction unbound at 2 h, 2 μM in the data set on melanin is 0.0629.

In the case of `NC(=O)c1c(OCc2c(F)cc3c(c2F)OCC3)nsc1NC(=O)NCCCCN1CC[C@H](O)C1` [Compound T134, 3-[(5,7-difluoro-2,3-dihydrobenzofuran-6-yl)methoxy]-5-[4-[(3S)-3-hydroxypyrrolidin-1-yl]butylcarbamoylamino]isothiazole-4-carboxamide], the IC50 at EGFR was found to be 20600 nM; at VEGFR2 [2], 6.6 nM; against VEGFR2 [3] it was 16 nM. Moreover, the fraction unbound at 2 h, 2 μM with melanin was 0.0401.

As for `NC(=O)c1c(OCc2cc(C(=O)NC3CC3)c(F)cc2F)nsc1NC(=O)NCCCCN1CCCC1` [Compound T128, 3-[[5-(cyclopropylcarbamoyl)-2,4-difluoro-phenyl]methoxy]-5-(4-pyrrolidin-1-ylbutylcarbamoylamino)isothiazole-4-carboxamide], the values for the IC50 at TIE2, at VEGFR2 [2] and against VEGFR2 [3] were 1180 nM, 1.2 nM and 4.9 nM, respectively.

Turning to `COc1cc(OC)c(F)c(COc2nsc(NC(=O)NCCC3CCN(C)CC3)c2C(N)=O)c1F` [Compound T145, 3-[(2,6-difluoro-3,5-dimethoxy-phenyl)methoxy]-5-[2-(1-methyl-4-piperidyl)ethylcarbamoylamino]isothiazole-4-carboxamide], the IC50 at EGFR was over 60000 nM; at VEGFR2 [2] it was 1.39 nM; on VEGFR2 [3], 2.2 nM. Also, in the data set on melanin, the fraction unbound at 2 h, 2 μM was determined as 0.0437.

For the origin of these results see patent US20260217698A1 (BEYANG THERAPEUTICS CO., LTD., priority 2022, published 2026).
